The text below walks through data of patent publication US5763464A, “Retroviral agents containing anthranilamide, substituted benzamide and other subunits, and methods of using same” (The United States of America as represented by the …, priority 1995, dated 1998).

In assay [1] the test system is HIV-1 (CEM cells chronically infected with HIV-1). Kind of assay: Anti-retroviral activity in CEM cells chronically infected with HIV-1, soluble formazan assay. The class given is cell-based. As to conditions: Human immunodeficiency virus 1, CCRF-CEM. How it is done:
Using the soluble formazan assay described by Weislow et al. (J. Nat'l. Cancer Inst., 81, 577-586 (1989)), CEM cells chronically infected with HIV-1 were used to assay the anti-retroviral activity of test compounds described herein. The concentration of compound that inhibits 50% of viral activity (EC50; determined as described in Weislow et al. (1989), supra) and the inhibition constant (Ki, as defined in Example 7) for the compound were determined.

A further assay deals with CEM cells. Kind of assay: Toxicity (IC50) in CEM cells, soluble formazan assay. As to conditions: Homo sapiens, CCRF-CEM.
The target of assay [2] is T1, HIV-1 protease (wild-type, WT) (Human immunodeficiency virus type 1 group M subtype B, UniProt P04585).
T1 construct: purified HIV-1 protease (wild-type, WT)
As to the kind of experiment: biochemical. How it is done:
The inhibition constants (Ki) for the compounds of the above examples were determined using purified HIV-1 protease (wild-type, WT) (Tables I, II and III). Ki is an inhibition constant of a given compound as derived by enzyme kinetics. A low Ki represents a high affinity of the compound for the enzyme, i.e., tight binding or low dissociation. Inhibition of the cleavage was assayed using a fluorogenic substrate available from Molecular Probes, Inc., Eugene, Oreg., and described in Kageyama et al., Antimicrob. Agents. Chemother., 37, 272 (1993), and a fluorogenic substrate available from Bachem California, Torrance, Calif., and described in Kageyama et al. (1993), supra. Percent inhibition is the percentage inhibition of an enzyme's activity by a given compound at a given concentration.

The mark [3] stands for this setting: Table I, unit inferred, read-out: Ki.

Read-outs that look alike come from different tables or passages of the source. Where only a bound is given, the exact number is not on record here.

Consider `CC(C)(C)OC(=O)N[C@@H](Cc1ccccc1)C[C@H](O)[C@H](Cc1ccccc1)NC(=O)c1ccccc1NC(=O)OCc1ccccn1` [AN-42], for which the EC50 in assay [1] (Table II, read-out: EC50) was less than 1000 nM. For the same molecule, the IC50 in the assay on CEM cells was 23000 nM. In addition, the Ki in assay [2] (Table II, read-out: Ki) turned out to be 0.85 nM.

For the molecule `CC(C)(C)NC(=O)N[C@@H](Cc1ccccc1)C[C@H](O)[C@H](Cc1ccccc1)NC(=O)c1ccccc1NC(=O)OCc1ccccn1` [AN-43], the EC50 in assay [1] (Table II, read-out: EC50) was found to be 1600 nM. Besides, half-maximal inhibition in the assay with CEM cells (IC50) required 33000 nM. Besides, in assay [2] (Table II, read-out: Ki), the Ki came out at 1.05 nM.

In the case of `Nc1ccccc1C(=O)N[C@@H](Cc1ccccc1)C[C@H](O)[C@H](Cc1ccccc1)NC(=O)c1ccccc1N` [AN-72], the Ki in assay [2] (setting [3]) is 96 nM.

`Cc1c(O)cccc1C(=O)N[C@@H](Cc1ccccc1)[C@H](O)[C@H](O)[C@H](Cc1ccccc1)NC(=O)O[C@H]1CCOC1` [AN-76] came in with an EC50 in assay [1] (Table I) of 7500 nM. For the same molecule, the IC50 in the assay on CEM cells was more than 50000 nM. Also, the inhibition constant Ki in assay [2] was determined as 2 nM.

Consider `Cc1c(O)cccc1C(=O)N[C@@H](Cc1ccccc1)[C@@H](O)[C@@H](O)[C@H](Cc1ccccc1)NC(=O)O[C@H]1CCOC1` [AN-78], for which the response in assay [1] (Table I) was half-maximal at 21000 nM (EC50). Also, the IC50 in the assay with CEM cells is more than 50000 nM. The molecule also gave a Ki in assay [2] of 1.43 nM.

`Cc1c(O)cccc1C(=O)N[C@@H](Cc1ccccc1)[C@@H](O)C[C@H](Cc1ccccc1)NC(=O)c1ccc(O)cc1` [AN-88]: the Ki in assay [2] (setting [3]) worked out at 3.65 nM.

With `Cc1c(O)cccc1C(=O)N[C@@H](Cc1ccccc1)[C@@H](O)C[C@H](Cc1ccccc1)NC(=O)c1cccc(O)c1` [AN-89], the Ki in assay [2] (setting [3]) was 1.88 nM.

In the case of `COc1ccc(S(=O)(=O)N[C@@H](Cc2ccccc2)C[C@H](O)[C@H](Cc2ccccc2)NC(=O)c2cccc(O)c2C)cc1` [AN-91], in assay [2] (Table I, unit printed in the line, read-out: Ki), the Ki amounted to 1500 nM.

As to `Cc1c(O)cccc1C(=O)N[C@@H](Cc1ccccc1)[C@@H](O)C[C@H](Cc1ccccc1)NC(=O)OCc1cccnc1` [AN-92, (2S,3S,5S)-2-[N-[(3-hydroxy-2-methylphenyl)carbonyl]amino]-5-[N-[(3-pyridinylmethoxy)carbonyl]amino]-1,6-diphenyl-3-hydroxy hexane], the EC50 in assay [1] (Table I, read-out: EC50) was determined as 1300 nM. Also, the IC50 with CEM cells was more than 100000 nM. Besides, in assay [2] (setting [3]), the Ki came out at 0.46 nM.

Take `Cc1c(O)cccc1C(=O)N[C@@H](Cc1ccccc1)[C@@H](O)C[C@H](Cc1ccccc1)NC(=O)c1cccc(N)c1` [AN-96, (2S,3S,5S)-2-[N-[(3-hydroxy-2-methylphenyl)carbonyl]amino]-5-[N-(3-aminophenyl)carbonyl]amino-1,6-diphenyl-3-hydroxy hexane]: the EC50 in assay [1] (Table I) was in the range of 630 to 58000 nM. The molecule further came in with an IC50 with CEM cells of more than 100000 nM. Moreover, affinity in assay [2] was put at a Ki of 0.75 nM.

For the molecule `Cc1c(O)cccc1C(=O)N[C@@H](Cc1ccccc1)[C@@H](O)C[C@H](Cc1ccccc1)NC(=O)O[C@H]1CCOC1` [AN-98], in assay [1] (Table I, read-out: EC50), the 50% effective concentration (EC50) fell in the range of 630 to 1000 nM. The same molecule yielded an IC50 in the assay on CEM cells of more than 100000 nM. Further, in assay [2] (setting [3]), the Ki is 0.32 nM.

`Cc1c(O)cccc1C(=O)N[C@@H](Cc1ccccc1)C[C@H](O)[C@H](Cc1ccccc1)NC(=O)c1cccc(O)c1C` [DD-8]: in assay [1] (Table I, read-out: EC50), the concentration giving a half-maximal response (EC50) worked out at 400 nM. The molecule further showed a 50% inhibitory concentration (IC50) in the assay on CEM cells of 22000 nM. Also, the Ki in assay [2] (read-out: Ki) was 0.8 nM.

For `O=C(Nc1ccccc1C(=O)N[C@@H](Cc1ccccc1)[C@@H](O)[C@@H](O)[C@H](Cc1ccccc1)NC(=O)c1cccc(O)c1)OCc1ccccc1` [DN-3], the Ki in assay [2] (Table II, read-out: Ki) came to 5.9 nM.

As for `O=C(Nc1ccccc1C(=O)N[C@@H](Cc1ccccc1)[C@@H](O)[C@@H](O)[C@H](Cc1ccccc1)NC(=O)c1cccc(O)c1)OCc1ccccn1` [DN-4], in assay [1] (Table II, read-out: EC50), the EC50 worked out at 900 nM. The molecule further yielded an IC50 in the assay on CEM cells of 9000 to 28000 nM. For the same molecule, in assay [2] (Table II, read-out: Ki), the Ki was found to be 1.77 nM.

`CC(C)(C)OC(=O)N[C@@H](Cc1ccccc1)[C@@H](O)[C@@H](O)[C@H](Cc1ccccc1)NC(=O)c1ccccc1NC(=O)OCc1ccccn1` [DN-11]: the EC50 in assay [1] (Table II, read-out: EC50) is 490 nM. It took 21000 nM to reach half-maximal inhibition in the assay with CEM cells (IC50). In addition, the Ki in assay [2] (Example 2, read-out: Ki) was determined as 0.4 nM; in assay [2] (Table II, read-out: Ki), 0.45 nM.

Regarding `O=C(N[C@@H](Cc1ccccc1)[C@H](O)[C@H](O)[C@H](Cc1ccccc1)NC(=O)c1cccc(O)c1)c1cccc(O)c1` [Diol-10], in assay [2] (Table I, unit not given), the Ki is given as 22/25.

Take `O=C(N[C@@H](Cc1ccccc1)[C@H](O)[C@H](O)[C@H](Cc1ccccc1)NC(=O)c1ccc(O)cc1)c1ccc(O)cc1` [Diol-51]: the Ki in assay [2] (setting [3]) was 276 nM.

On to `Cc1c(O)cccc1C(=O)N[C@@H](Cc1ccccc1)[C@H](O)[C@H](O)[C@H](Cc1ccccc1)NC(=O)c1cccc(O)c1C` [Diol-52], for which, in assay [1] (Table I), the EC50 is 900 nM. For the same molecule, the IC50 in the assay with CEM cells worked out at 25000 nM. The Ki in assay [2] (setting [3]) came out at 1.2 nM.

As to `O=C(N[C@@H](Cc1ccccc1)[C@H](O)[C@H](O)[C@H](Cc1ccccc1)NC(=O)c1ccccc1)c1ccccc1` [Diol-56], the Ki in assay [2] (setting [3]) came out at 40 nM.

With `Cc1ccccc1C(=O)N[C@@H](Cc1ccccc1)[C@H](O)[C@H](O)[C@H](Cc1ccccc1)NC(=O)c1ccccc1C` [Diol-57], in assay [2] (setting [3]), the Ki was determined as 8 nM.

Turning to `O=C(N[C@@H](Cc1ccccc1)[C@H](O)[C@H](O)[C@H](Cc1ccccc1)NC(=O)c1ccccc1O)c1ccccc1O` [Diol-58], the “Percent inhibition (Ki column)” value in assay [2] (Table I, 10μ) is on record as 32%.

Turning to `CC(C)C(NC(=O)OCc1ccccn1)C(=O)N[C@@H](Cc1ccccc1)C[C@H](O)[C@H](Cc1ccccc1)NC(=O)c1ccccc1NC(=O)OCc1ccccn1` (some centres unmarked) [LL-68], the EC50 in assay [1] (Table II, read-out: EC50) is 490 nM. This molecule showed an IC50 with CEM cells of 22000 nM. The Ki in assay [2] (Table II, read-out: Ki) is 0.034 nM.

`Cc1c(O)cccc1C(=O)N[C@@H](Cc1ccccc1)C[C@H](O)[C@H](Cc1ccccc1)NC(=O)c1ccccc1NC(=O)OCc1ccccn1` [LL-69]: the Ki in assay [2] (Table II, read-out: Ki) was 0.68 nM.

With `CC(C)(C)OC(=O)N[C@@H](Cc1ccccc1)[C@@H](O)[C@@H](O)[C@H](Cc1ccccc1)NC(=O)c1ccccc1NC(=O)OCc1ccccn1` [LL-70], in assay [2] (read-out: Ki), the Ki turned out to be 0.14 nM.

For the molecule `CC(C)C(NC(=O)OCc1ccccn1)C(=O)N[C@@H](Cc1ccccc1)[C@@H](O)[C@@H](O)[C@H](Cc1ccccc1)NC(=O)c1ccccc1NC(=O)OCc1ccccn1` (stereo partly drawn) [LL-73, (2S,3R,4S,5S)-2-[N-(N-(2-pyridinylmethoxy)valinyl)amino]-5-[N-[N-((2-pyridinylmethoxy)carbonyl)anthranilyl]amino]-3,4-dihydroxy-1,6-diphenyl hexane], a half-maximal effect in assay [1] (Table III) (EC50) was put at 4 nM. In the assay with CEM cells, this molecule had an IC50 of 47000 nM.

The molecule `O=C(Nc1ccccc1C(=O)N[C@@H](Cc1ccccc1)C[C@H](O)[C@H](Cc1ccccc1)NC(=O)O[C@H]1CCOC1)OCc1ccccn1` [LL-101, (2S,3S,5S)-5-[N-[N-((2-pyridinylmethoxy)carbonyl)anthranilyl]amino]2-[N-((3-S-(tetrahydrofuranyl)oxy)carbonyl)amino]-1,6-diphenyl-3-hydroxy hexane] gave a Ki in assay [2] of 0.042 ± 0.007 nM.

In the case of `O=C(Nc1ccccc1C(=O)N[C@@H](Cc1ccccc1)[C@H](O)[C@H](O)[C@H](Cc1ccccc1)NC(=O)c1cccc(O)c1)OCc1ccccn1` [ND-4], in assay [2] (Table III, read-out: Ki), the Ki came to 0.76 nM.

With `CC(C)(C)OC(=O)N[C@@H](Cc1ccccc1)[C@H](O)[C@H](O)[C@H](Cc1ccccc1)NC(=O)OC(C)(C)C` [RS-196], the Ki in assay [2] (read-out: Ki) is 8.4 nM.

With `Cc1c(O)cccc1C(=O)N[C@@H](Cc1ccccc1)[C@H](O)[C@H](O)[C@H](Cc1ccccc1)NC(=O)OC(C)(C)C` [RS-198], the Ki in assay [2] (setting [3]) is 8.3 nM.

Take `Cc1ccc(O)cc1C(=O)N[C@@H](Cc1ccccc1)C[C@H](O)[C@H](Cc1ccccc1)NC(=O)c1cc(O)ccc1C` [RS-201]: the Ki in assay [2] (setting [3]) amounted to 6.6 nM.

In general, EC50 refers to the concentration at which the effect is half-maximal. By IC50 is commonly meant the concentration at which inhibition is half-maximal. Low values mean greater potency, high ones weaker potency. The Ki is a dissociation constant, usually derived from enzyme kinetics or from competition with a known ligand.
